Measured values reported in US11019818B2, “Herbicidal 3-substituted lactams” (FMC Corporation, priority 2017, dated 2021).

Key:
Type in all cases: in vivo
[1] = test system: barnyardgrass (Echinochloa crus-galli); test: Test A postemergence, barnyardgrass; settings: 0 to 100 scale (0 no effect, 100 complete control), approx. 10 d
Description: (§1) Seeds of plant species selected from barnyardgrass (Echinochloa crus-galli), kochia (Kochia scoparia), ragweed (common ragweed, Ambrosia elatior), ryegrass, Italian (Italian ryegrass, Lolium multiflorum), foxtail, green (green foxtail, Setaria viridis), and pigweed (Amaranthus retroflexus) were planted into a blend of loam soil and sand and treated preemergence with a directed soil spray using test chemicals formulated in a non-phytotoxic solvent mixture which included a surfactant. At the same time, plants selected from these weed species and also wheat (Triticum aestivum), corn (Zea mays), blackgrass (Alopecurus myosuroides), and galium (catchweed bedstraw, Galium aparine) were planted in pots containing the same blend of loam soil and sand and treated with postemergence applications of test chemicals formulated in the same manner. Plants ranged in height from 2 to 10 cm and were in the one- to two-leaf stage for the postemergence treatment. Treated plants and untreated controls were maintained in a greenhouse for approximately 10 d, after which time all treated plants were compared to untreated controls and visually evaluated for injury. Plant response ratings, summarized in Table A, are based on a 0 to 100 scale where 0 is no effect and 100 is complete control. A dash (-) response means no test result.

kochia (Kochia scoparia) [2] = test: Test A postemergence, kochia; settings: 0 to 100 scale (0 no effect, 100 complete control), approx. 10 d
Description: as §1

[3] = test system: ragweed (common ragweed, Ambrosia elatior); test: Test A postemergence, ragweed; settings: 0 to 100 scale (0 no effect, 100 complete control), approx. 10 d
Description: as §1

[4] = test system: ryegrass, Italian (Italian ryegrass, Lolium multiflorum); test: Test A postemergence, Italian ryegrass; settings: 0 to 100 scale (0 no effect, 100 complete control), approx. 10 d
Description: as §1

[5] = test system: foxtail, green (green foxtail, Setaria viridis); test: Test A postemergence, green foxtail; settings: 0 to 100 scale (0 no effect, 100 complete control), approx. 10 d
Description: as §1

[6] = test system: pigweed (Amaranthus retroflexus); test: Test A postemergence, pigweed; settings: 0 to 100 scale (0 no effect, 100 complete control), approx. 10 d
Description: as §1

[7] = test system: wheat (Triticum aestivum); test: Test A postemergence, wheat; settings: 0 to 100 scale (0 no effect, 100 complete control), approx. 10 d
Description: as §1

corn (Zea mays) = test: Test A postemergence, corn; settings: 0 to 100 scale (0 no effect, 100 complete control), approx. 10 d
Description: as §1

[8] = test system: blackgrass (Alopecurus myosuroides); test: Test A postemergence, blackgrass; settings: 0 to 100 scale (0 no effect, 100 complete control), approx. 10 d
Description: as §1

[9] = test system: galium (catchweed bedstraw, Galium aparine); test: Test A postemergence, galium; settings: 0 to 100 scale (0 no effect, 100 complete control), approx. 10 d
Description: as §1

[10] = test system: barnyardgrass (Echinochloa crus-galli); test: Test A preemergence, barnyardgrass; settings: 0 to 100 scale (0 no effect, 100 complete control), approx. 10 d
Description: as §1

kochia (Kochia scoparia) [11] = test: Test A preemergence, kochia; settings: 0 to 100 scale (0 no effect, 100 complete control), approx. 10 d
Description: as §1

[12] = test system: ragweed (common ragweed, Ambrosia elatior); test: Test A preemergence, ragweed; settings: 0 to 100 scale (0 no effect, 100 complete control), approx. 10 d
Description: as §1

[13] = test system: ryegrass, Italian (Italian ryegrass, Lolium multiflorum); test: Test A preemergence, Italian ryegrass; settings: 0 to 100 scale (0 no effect, 100 complete control), approx. 10 d
Description: as §1

[14] = test system: foxtail, green (green foxtail, Setaria viridis); test: Test A preemergence, green foxtail; settings: 0 to 100 scale (0 no effect, 100 complete control), approx. 10 d
Description: as §1

[15] = test system: pigweed (Amaranthus retroflexus); test: Test A preemergence, pigweed; settings: 0 to 100 scale (0 no effect, 100 complete control), approx. 10 d
Description: as §1

[16] = test system: barnyardgrass (Echinochloa crus-galli); test: Test B flooded paddy test, barnyardgrass; settings: Flood, 250 g ai/ha; applied to paddy water at 2-leaf stage; visual rating after 13 to 15 d; scale 0 to 100, 0 is no effect, 100 is complete control
Method: (§2) Plant species in the flooded paddy test selected from rice (Oryza sativa), sedge, umbrella (small-flower umbrella sedge, Cyperus difformis), ducksalad (Heteranthera limosa), and barnyardgrass (Echinochloa crus-galli) were grown to the 2-leaf stage for testing. At time of treatment, test pots were flooded to 3 cm above the soil surface, treated by application of test compounds directly to the paddy water, and then maintained at that water depth for the duration of the test. Treated plants and controls were maintained in a greenhouse for 13 to 15 d, after which time all species were compared to controls and visually evaluated. Plant response ratings, summarized in Table B, are based on a scale of 0 to 100 where 0 is no effect and 100 is complete control. A dash (-) response means no test result.

[17] = test system: ducksalad (Heteranthera limosa); test: Test B flooded paddy test, ducksalad; settings: Flood, 250 g ai/ha; applied to paddy water at 2-leaf stage; visual rating after 13 to 15 d; scale 0 to 100, 0 is no effect, 100 is complete control
Method: as §2

rice (Oryza sativa) = test: Test B flooded paddy test, rice; settings: Flood, 250 g ai/ha; applied to paddy water at 2-leaf stage; visual rating after 13 to 15 d; scale 0 to 100, 0 is no effect, 100 is complete control
Method: as §2

[18] = test system: sedge, umbrella (small-flower umbrella sedge, Cyperus difformis); test: Test B flooded paddy test, umbrella sedge; settings: Flood, 250 g ai/ha; applied to paddy water at 2-leaf stage; visual rating after 13 to 15 d; scale 0 to 100, 0 is no effect, 100 is complete control
Method: as §2

Compound	Plant response rating, Barnyardgrass ([1]; 31 g ai/ha)	Plant response rating, Barnyardgrass ([1]; 125 g ai/ha)	Plant response rating, Kochia (kochia (Kochia scoparia) [2]; 31 g ai/ha)	Plant response rating, Kochia (kochia (Kochia scoparia) [2]; 125 g ai/ha)	Plant response rating, Ragweed ([3]; 31 g ai/ha)	Plant response rating, Ragweed ([3]; 125 g ai/ha)	Plant response rating, Ryegrass, Italian ([4]; 31 g ai/ha)	Plant response rating, Ryegrass, Italian ([4]; 125 g ai/ha)	Plant response rating, Foxtail, Green ([5]; 31 g ai/ha)	Plant response rating, Foxtail, Green ([5]; 125 g ai/ha)	Plant response rating, Pigweed ([6]; 31 g ai/ha)	Plant response rating, Pigweed ([6]; 125 g ai/ha)	Plant response rating, Wheat ([7]; 31 g ai/ha)	Plant response rating, Wheat ([7]; 125 g ai/ha)	Plant response rating, Corn (corn (Zea mays); 31 g ai/ha)	Plant response rating, Corn (corn (Zea mays); 125 g ai/ha)	Plant response rating, Blackgrass ([8]; 31 g ai/ha)	Plant response rating, Blackgrass ([8]; 125 g ai/ha)	Plant response rating, Galium ([9]; 31 g ai/ha)	Plant response rating, Galium ([9]; 125 g ai/ha)	further results
CN1C[C@H](c2ccc(C(F)(F)F)cc2)[C@@](CO)(C(=O)Nc2cccc(F)c2F)C1=O [Compound 5, (3R,4R)—N-(2,3-difluorophenyl)-3-(hydroxymethyl)-1-methyl-2-oxo-4-[4-(trifluoromethyl)phenyl]-3-pyrrolidinecarboxamide]	30	80	30	70	0	40	20	50	30	80	30	50	0	30	0	60	0	30	40	40	Plant response rating, Barnyardgrass ([10]; 31 g ai/ha): 80; Plant response rating, Barnyardgrass ([10]; 125 g ai/ha): 90; Plant response rating, Kochia (kochia (Kochia scoparia) [11]; 31 g ai/ha): 0; Plant response rating, Kochia (kochia (Kochia scoparia) [11]; 125 g ai/ha): 60; Plant response rating, Ragweed ([12]; 31 g ai/ha): 0; Plant response rating, Ragweed ([12]; 125 g ai/ha): 60; Plant response rating, Ryegrass, Italian ([13]; 31 g ai/ha): 10; Plant response rating, Ryegrass, Italian ([13]; 125 g ai/ha): 80; Plant response rating, Foxtail, Green ([14]; 31 g ai/ha): 70; Plant response rating, Foxtail, Green ([14]; 125 g ai/ha): 90; Plant response rating, Pigweed ([15]; 31 g ai/ha): 0; Plant response rating, Pigweed ([15]; 125 g ai/ha): 60; Plant response rating, Barnyardgrass [16]: 65; Plant response rating, Ducksalad [17]: 90; Plant response rating, Rice (rice (Oryza sativa)): 25; Plant response rating, Sedge, Umbrella [18]: 0
CCNC(=O)C1(C(=O)Nc2cccc(F)c2F)C(=O)N(C)CC1c1ccc(C(F)(F)F)cc1 (stereo not drawn) [Compound 7]	0	10	0	0	0	0	0	10	0	20	10	30	0	0	0	0	0	0	0	30	Plant response rating, Barnyardgrass ([10]; 31 g ai/ha): 0; Plant response rating, Barnyardgrass ([10]; 125 g ai/ha): 70; Plant response rating, Kochia (kochia (Kochia scoparia) [11]; 31 g ai/ha): 0; Plant response rating, Kochia (kochia (Kochia scoparia) [11]; 125 g ai/ha): 0; Plant response rating, Ragweed ([12]; 31 g ai/ha): 0; Plant response rating, Ragweed ([12]; 125 g ai/ha): 0; Plant response rating, Ryegrass, Italian ([13]; 31 g ai/ha): 0; Plant response rating, Ryegrass, Italian ([13]; 125 g ai/ha): 0; Plant response rating, Foxtail, Green ([14]; 31 g ai/ha): 0; Plant response rating, Foxtail, Green ([14]; 125 g ai/ha): 80; Plant response rating, Pigweed ([15]; 31 g ai/ha): 0; Plant response rating, Pigweed ([15]; 125 g ai/ha): 10; Plant response rating, Barnyardgrass [16]: 0; Plant response rating, Ducksalad [17]: 75; Plant response rating, Rice (rice (Oryza sativa)): 30; Plant response rating, Sedge, Umbrella [18]: 0
CC(C)NC(=O)C1(C(=O)Nc2cccc(F)c2F)C(=O)N(C)CC1c1ccc(C(F)(F)F)cc1 (stereo not drawn) [Compound 8]	0	0	0	0	0	0	0	0	0	0	0	0	0	0	0	0	0	0	0	0	Plant response rating, Barnyardgrass ([10]; 31 g ai/ha): 0; Plant response rating, Barnyardgrass ([10]; 125 g ai/ha): 0; Plant response rating, Kochia (kochia (Kochia scoparia) [11]; 31 g ai/ha): 0; Plant response rating, Kochia (kochia (Kochia scoparia) [11]; 125 g ai/ha): 0; Plant response rating, Ragweed ([12]; 31 g ai/ha): 0; Plant response rating, Ragweed ([12]; 125 g ai/ha): 0; Plant response rating, Ryegrass, Italian ([13]; 31 g ai/ha): 0; Plant response rating, Ryegrass, Italian ([13]; 125 g ai/ha): 0; Plant response rating, Foxtail, Green ([14]; 31 g ai/ha): 0; Plant response rating, Foxtail, Green ([14]; 125 g ai/ha): 0; Plant response rating, Pigweed ([15]; 31 g ai/ha): 0; Plant response rating, Pigweed ([15]; 125 g ai/ha): 0; Plant response rating, Barnyardgrass [16]: 0; Plant response rating, Ducksalad [17]: 0; Plant response rating, Rice (rice (Oryza sativa)): 0; Plant response rating, Sedge, Umbrella [18]: 0
